Source: ChEMBL document CHEMBL3779796, “One-pot synthesis and antimicrobial evaluation of novel 3-cyanopyridine derivatives of (-)-β-pinene” (2016)
Converted amounts (≈) assume the structure as drawn.

Key:
Format in all cases: functional
Klebsiella pneumoniae = assay: Antimicrobial activity against Klebsiella pneumoniae after 24 hrs by serial two-fold microbroth dilution method
Staphylococcus aureus = assay: Antimicrobial activity against Staphylococcus aureus after 24 hrs by serial two-fold microbroth dilution method
Klebsiella aerogenes = assay: Antimicrobial activity against Enterobacter aerogenes after 24 hrs by serial two-fold microbroth dilution method
[1] = system: Staphylococcus epidermidis; assay: Antimicrobial activity against Staphylococcus epidermidis after 24 hrs by serial two-fold microbroth dilution method
Candida albicans = assay: Antimicrobial activity against Candida albicans after 48 hrs by serial two-fold microbroth dilution method

MIC (Klebsiella pneumoniae) [µg/mL] | MIC (Staphylococcus aureus) [µg/mL] | MIC (Klebsiella aerogenes) [µg/mL] | MIC [1] [µg/mL] | MIC (Candida albicans) [µg/mL] | SMILES
62.5 (≈ 203 µM) | 31.3 (≈ 102 µM) | 62.5 (≈ 203 µM) | 15.6 (≈ 50.6 µM) | 31.3 (≈ 102 µM) | CC1(C)[C@H]2Cc3c(nc(O)c(C#N)c3-c3ccc(F)cc3)[C@@H]1C2
62.5 (≈ 192 µM) | 31.3 (≈ 95.9 µM) | 62.5 (≈ 192 µM) | 15.6 (≈ 47.8 µM) | 15.6 (≈ 47.8 µM) | CC1(C)[C@H]2Cc3c(nc(O)c(C#N)c3-c3ccc(F)c(F)c3)[C@@H]1C2
125 (≈ 384 µM) | > 125 | 125 (≈ 384 µM) | 125 (≈ 384 µM) | 31.3 (≈ 96.2 µM) | CC1(C)[C@H]2Cc3c(nc(N)c(C#N)c3-c3ccc(F)c(F)c3)[C@@H]1C2
125 (≈ 385 µM) | 125 (≈ 385 µM) | 62.5 (≈ 192 µM) | 125 (≈ 385 µM) | 125 (≈ 385 µM) | CC1(C)[C@H]2Cc3c(nc(O)c(C#N)c3-c3ccccc3Cl)[C@@H]1C2
125 (≈ 348 µM) | 62.5 (≈ 174 µM) | 62.5 (≈ 174 µM) | 31.3 (≈ 87.1 µM) | 62.5 (≈ 174 µM) | CC1(C)[C@H]2Cc3c(nc(O)c(C#N)c3-c3ccc(Cl)cc3Cl)[C@@H]1C2
62.5 (≈ 192 µM) | 31.3 (≈ 96.4 µM) | 62.5 (≈ 192 µM) | 31.3 (≈ 96.4 µM) | 31.3 (≈ 96.4 µM) | CC1(C)[C@H]2Cc3c(nc(O)c(C#N)c3-c3ccc(Cl)cc3)[C@@H]1C2
> 125 | > 125 | > 125 | 125 (≈ 358 µM) | 62.5 (≈ 179 µM) | COc1ccc(-c2c(C#N)c(N)nc3c2C[C@H]2C[C@@H]3C2(C)C)cc1OC
> 125 | 125 (≈ 349 µM) | 125 (≈ 349 µM) | 125 (≈ 349 µM) | 125 (≈ 349 µM) | CC1(C)[C@H]2Cc3c(nc(O)c(C#N)c3-c3ccc(C(F)(F)F)cc3)[C@@H]1C2
125 (≈ 391 µM) | 125 (≈ 391 µM) | 125 (≈ 391 µM) | 125 (≈ 391 µM) | 125 (≈ 391 µM) | COc1cccc(-c2c(C#N)c(N)nc3c2C[C@H]2C[C@@H]3C2(C)C)c1
> 125 | > 125 | > 125 | > 125 | 125 (≈ 412 µM) | Cc1ccc(-c2c(C#N)c(N)nc3c2C[C@H]2C[C@@H]3C2(C)C)cc1
125 (≈ 390 µM) | 125 (≈ 390 µM) | 125 (≈ 390 µM) | 125 (≈ 390 µM) | 62.5 (≈ 195 µM) | COc1ccccc1-c1c(C#N)c(O)nc2c1C[C@H]1C[C@@H]2C1(C)C
125 (≈ 339 µM) | > 125 | 125 (≈ 339 µM) | 125 (≈ 339 µM) | 125 (≈ 339 µM) | CC1(C)[C@H]2Cc3c(nc(N)c(C#N)c3-c3cccc(Br)c3)[C@@H]1C2
125 (≈ 390 µM) | 62.5 (≈ 195 µM) | 125 (≈ 390 µM) | 62.5 (≈ 195 µM) | 125 (≈ 390 µM) | COc1cccc(-c2c(C#N)c(O)nc3c2C[C@H]2C[C@@H]3C2(C)C)c1
125 (≈ 386 µM) | 125 (≈ 386 µM) | 125 (≈ 386 µM) | 125 (≈ 386 µM) | 125 (≈ 386 µM) | CC1(C)[C@H]2Cc3c(nc(N)c(C#N)c3-c3ccccc3Cl)[C@@H]1C2
> 125 | > 125 | > 125 | 125 (≈ 391 µM) | 125 (≈ 391 µM) | COc1ccccc1-c1c(C#N)c(N)nc2c1C[C@H]1C[C@@H]2C1(C)C
62.5 (≈ 204 µM) | 62.5 (≈ 204 µM) | 62.5 (≈ 204 µM) | 31.3 (≈ 102 µM) | 62.5 (≈ 204 µM) | CC1(C)[C@H]2Cc3c(nc(O)c(C#N)c3-c3cccc(O)c3)[C@@H]1C2
> 125 | 125 (≈ 411 µM) | > 125 | 125 (≈ 411 µM) | 125 (≈ 411 µM) | Cc1ccc(-c2c(C#N)c(O)nc3c2C[C@H]2C[C@@H]3C2(C)C)cc1
125 (≈ 386 µM) | 125 (≈ 386 µM) | 125 (≈ 386 µM) | 125 (≈ 386 µM) | 62.5 (≈ 193 µM) | CC1(C)[C@H]2Cc3c(nc(N)c(C#N)c3-c3ccc(Cl)cc3)[C@@H]1C2
> 125 | 125 (≈ 430 µM) | > 125 | 125 (≈ 430 µM) | 125 (≈ 430 µM) | CC1(C)[C@H]2Cc3c(nc(O)c(C#N)c3-c3ccccc3)[C@@H]1C2
125 (≈ 407 µM) | > 125 | 125 (≈ 407 µM) | 125 (≈ 407 µM) | 62.5 (≈ 203 µM) | CC1(C)[C@H]2Cc3c(nc(N)c(C#N)c3-c3ccc(F)cc3)[C@@H]1C2
125 (≈ 339 µM) | 125 (≈ 339 µM) | 125 (≈ 339 µM) | 125 (≈ 339 µM) | 62.5 (≈ 170 µM) | CC1(C)[C@H]2Cc3c(nc(N)c(C#N)c3-c3ccc(Br)cc3)[C@@H]1C2
125 (≈ 409 µM) | > 125 | 125 (≈ 409 µM) | 125 (≈ 409 µM) | 125 (≈ 409 µM) | CC1(C)[C@H]2Cc3c(nc(N)c(C#N)c3-c3cccc(O)c3)[C@@H]1C2
62.5 (≈ 169 µM) | 62.5 (≈ 169 µM) | 62.5 (≈ 169 µM) | 31.3 (≈ 84.8 µM) | 31.3 (≈ 84.8 µM) | CC1(C)[C@H]2Cc3c(nc(O)c(C#N)c3-c3cccc(Br)c3)[C@@H]1C2
> 125 | > 125 | > 125 | 125 (≈ 432 µM) | 125 (≈ 432 µM) | CC1(C)[C@H]2Cc3c(nc(N)c(C#N)c3-c3ccccc3)[C@@H]1C2
62.5 (≈ 169 µM) | 62.5 (≈ 169 µM) | 125 (≈ 339 µM) | 62.5 (≈ 169 µM) | 31.3 (≈ 84.8 µM) | CC1(C)[C@H]2Cc3c(nc(O)c(C#N)c3-c3ccc(Br)cc3)[C@@H]1C2
> 125 | > 125 | > 125 | > 125 | > 125 | CC1(C)[C@H]2CCC(=O)[C@@H]1C2
 |  |  |  | 3.9 (≈ 4.74 µM) | CO[C@H]1/C=C/O[C@@]2(C)Oc3c(C)c(O)c4c(O)c(c(/C=N/N5CCN(C)CC5)c(O)c4c3C2=O)NC(=O)/C(C)=C\C=C\[C@H](C)[C@H](O)[C@@H](C)[C@@H](O)[C@@H](C)[C@H](OC(C)=O)[C@@H]1C [RIFAMPIN]

SMILES | MIC (Klebsiella pneumoniae) [µg/mL] | MIC (Staphylococcus aureus) [µg/mL] | MIC (Klebsiella aerogenes) [µg/mL] | MIC [1] [µg/mL] | MIC (Candida albicans) [µg/mL]
NC[C@H]1O[C@H](O[C@H]2[C@H](O)[C@@H](O[C@H]3O[C@H](CO)[C@@H](O)[C@H](N)[C@H]3O)[C@H](N)C[C@@H]2N)[C@H](O)[C@@H](O)[C@@H]1O [KANAMYCIN] | 2 (≈ 4.13 µM) | 2 (≈ 4.13 µM) | 3.9 (≈ 8.05 µM) | 3.9 (≈ 8.05 µM) | 
